The values that follow come from patent US20180118718A1, “Substituted Quinoxaline Derivatives” (Selvita S.A., priority 2015, published 2018).

This test addresses T1, Human recombinant His-tagged PFKFB3 (Homo sapiens, UniProt Q16875).
T1 construct: His; made in house
Briefly: PFKFB3 IC50 Determination Assay (in vitro kinase assay, modified ADP-Glo system). Format: biochemical. The settings on record: ATP 20 μM and fructose-6-phosphate 2 μM (Km), 25 nM PFKFB3, 2 h, rt, ADP-Glo luminescence. Here is the method:
PFKFB3 IC50 Determination Assay
In vitro kinase assay used to determine IC50 values for tested inhibitors is based on a modified ADP-Glo™ system (Promega) and consists of two parts:
1. Kinase reaction—performed in optimized conditions. At this step PFKFB3 phosphorylates its substrate Fructose-6-phosphate using ATP as a source of phosphate to produce Fructose-2,6-bisphosphate and ADP. Reaction is performed at Km values for ATP and substrate using optimized buffer composition and time of the reaction. Human recombinant His-tagged PFKFB3 (PFKFB3 BATCH II SEC) with confirmed activity is produced and purified in-house. 2. Detection of ADP as a product of the reaction using ADP-Glo™ system. This part is conducted by using the commercially available kit ADP-Glo™ Kinase Assay (Promega, cat. No# V9103) according to manufacturer's instruction, modified by 5x dilutions of assay reagents (both ADP-Glo™ Reagent and Kinase Detection Solution).
Test compounds are dissolved in DMSO and then transferred to the V-bottom 96-well plate.
15 μL per well of Mix 1 is transferred to assay wells of 96-well white plate. […] Total reaction volume is 30 μL per well. Samples are tested in duplicates. Final concentration of DMSO in the reaction is 6.7%. Conditions needed for performing PFKFB3 (PFKFB3 BATCH II SEC) in vitro kinase assay are given below:
This protocol is based on Technical Bulletin, ADP-Glo™ Kinase Assay (Promega) and is adapted to 96-well plate containing 30 μL reaction mixture:
30 μL of 5x diluted ADP-Glo™ Reagent is added to each well of 96-well plate containing 30 μL of reaction mixture. The plate is incubated for 90 minutes on a shaker at RT. 60 μL of 5x diluted Kinase Detection Solution is added to each well of 96-well plate containing 60 μL of the solution (ratio of kinase reaction volume to ADP-Glo™ Reagent volume to Kinase Detection Solution volume is maintained at 1:1:2). Plate is incubated for 40 minutes on a shaker at RT, protected from light. Luminescence is measured in the plate reader Synergy 2 (BioTek).
Luminescent readouts for compounds tested in 10 concentrations (routinely from 100 μM to […], […] serial dilutions) in duplicates, as well as for positive control, are first normalized to no-substrate negative control by its subtraction. In the next step, % of normalized positive control is calculated for each data point and plotted against test compound concentration:
% of control percent of positive control normalized to no-substrate negative control Lumcpd luminescence of test compound Lumneg luminescence of no-substrate negative control Lumpos luminescence of positive control
IC50 parameter is determined by the GraphPad Prism 5.0 software [log(inhibitor) vs. response −Variable slope (four parameters)].

T1 sequence (Q16875 whole entry): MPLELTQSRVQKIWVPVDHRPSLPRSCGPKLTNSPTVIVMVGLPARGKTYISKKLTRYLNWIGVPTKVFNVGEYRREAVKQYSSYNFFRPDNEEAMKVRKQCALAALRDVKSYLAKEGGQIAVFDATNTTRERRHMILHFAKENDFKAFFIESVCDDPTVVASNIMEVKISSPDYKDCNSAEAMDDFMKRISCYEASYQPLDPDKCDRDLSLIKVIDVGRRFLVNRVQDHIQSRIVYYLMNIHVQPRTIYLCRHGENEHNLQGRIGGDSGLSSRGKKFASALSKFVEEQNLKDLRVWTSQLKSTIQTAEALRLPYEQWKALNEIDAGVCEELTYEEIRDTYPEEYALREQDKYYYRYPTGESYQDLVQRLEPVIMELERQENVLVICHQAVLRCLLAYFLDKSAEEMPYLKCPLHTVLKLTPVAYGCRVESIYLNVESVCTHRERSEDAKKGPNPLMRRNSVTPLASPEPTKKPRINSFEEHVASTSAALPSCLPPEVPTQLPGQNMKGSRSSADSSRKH

For `Cn1ccc2ccc(-c3cc(Nc4ncccc4S(C)(=O)=O)cc4nccnc34)cc21` [Example 81, N-(3-Methanesulfonylpyridin-2-yl)-8-(1-methyl-1H-indol-6-yl)quinoxalin-6-amine], the IC50 was in the range of 1 to 1000 nM.

Turning to `CC(=O)N1CCN(c2ccncc2Nc2cc(-c3ccc4ccn(C)c4c3)c3nccnc3c2)CC1` [Example 82, 1-[4-(3-{[8-(1-Methyl-1H-indol-6-yl)quinoxalin-6-yl]amino}pyridin-4-yl)piperazin-1-yl]ethan-1-one], the concentration for half-maximal inhibition (IC50) was 1 to 1000 nM.

For the compound `Cn1cnc(-c2ccncc2Nc2cc(-c3ccc4ccn(C)c4c3)c3nccnc3c2)c1` [Example 83, N-[4-(1-Methyl-1H-imidazol-4-yl)pyridin-3-yl]-8-(1-methyl-1H-indol-6-yl)quinoxalin-6-amine], the IC50 fell in the range of 1 to 1000 nM.

As for `Cn1ccc2ccc(-c3cc(Nc4cncc5c4OCCN5)cc4nccnc34)cc21` [Example 84, 8-(1-Methyl-1H-indol-6-yl)-N-{2H,3H,4H-pyrido[4,3-b][1,4]oxazin-8-yl}quinoxalin-6-amine], the concentration for half-maximal inhibition (IC50) was 1 to 1000 nM.

Take `Cn1ccc2ccc(-c3cc(Nc4c[n+]([O-])ccc4C#N)cc4nccnc34)cc21` [Example 90, 4-Cyano-3-{[8-(1-methyl-1H-indol-6-yl)quinoxalin-6-yl]amino}pyridin-1-ium-1-olate]: the IC50 is 1000 to 10000 nM.

With `CN(c1cc(-c2ccc3ccn(C)c3c2)c2nccnc2c1)c1cnccc1C#N` [Example 91, 3-{Methyl[8-(1-methyl-1H-indol-6-yl)quinoxalin-6-yl]amino}pyridine-4-carbonitrile], the IC50 was in the range of 1000 to 10000 nM.

Regarding `Cn1nccc1-c1ccc(S(C)(=O)=O)c(Nc2cc(-c3ccc4ccn(C)c4c3)c3nccnc3c2)c1` [Example 93, N-[2-Methanesulfonyl-5-(1-methyl-1H-pyrazol-5-yl)phenyl]-8-(1-methyl-1H-indol-6-yl)quinoxalin-6-amine], the IC50 was 1000 to 10000 nM.

On to `Cn1ccc2ccc(-c3cc(Nc4cc(-c5ncco5)ccc4S(C)(=O)=O)cc4nccnc34)cc21` [Example 94, N-[2-Methanesulfonyl-5-(1,3-oxazol-2-yl)phenyl]-8-(1-methyl-1H-indol-6-yl)quinoxalin-6-amine], for which the IC50 lay in the range of 1 to 1000 nM.

For `CN(c1cc(-c2ccc3ccn(C)c3c2)c2nccnc2c1)c1cnccc1C(N)=O` [Example 95, 3-{Methyl[8-(1-methyl-1H-indol-6-yl)quinoxalin-6-yl]amino}pyridine-4-carboxamide], the IC50 lay in the range of 1000 to 10000 nM.

For `Cn1ccc2ccc(-c3cc(Nc4cnccc4C(=O)Nc4ccccc4)cc4nccnc34)cc21` [Example 96, 3-{[8-(1-Methyl-1H-indol-6-yl)quinoxalin-6-yl]amino}-N-phenylpyridine-4-carboxamide], the half-maximal inhibitory concentration (IC50) fell in the range of 1 to 1000 nM.

For the compound `Cc1coc2ccc(-c3cc(Nc4cc(N)ccc4S(C)(=O)=O)cc4nccnc34)cc12` [Example 102, 6-Methanesulfonyl-N1-[8-(3-methyl-1-benzofuran-5-yl)quinoxalin-6-yl]benzene-1,3-diamine], the half-maximal inhibitory concentration (IC50) lay within 1 to 1000 nM.

For the compound `Cc1coc2ccc(-c3cc(Nc4cc([N+](=O)[O-])ccc4S(C)(=O)=O)cc4nccnc34)cc12` [Example 103, N-(2-methanesulfonyl-5-nitrophenyl)-8-(3-methyl-1-benzofuran-5-yl)quinoxalin-6-amine], the IC50 is 1000 to 10000 nM.

Consider `COC(=O)c1ccc(S(C)(=O)=O)c(Nc2cc(-c3ccc4ccn(C)c4c3)c3nccnc3c2)c1` [Example 115, Methyl 4-methanesulfonyl-3-{[8-(1-methyl-1H-indol-6-yl)quinoxalin-6-yl]amino}benzoate], for which the 50% inhibitory concentration (IC50) was in the range of 1000 to 10000 nM.

As for `Cn1ccc2ccc(-c3cc(Nc4cc(C(N)=O)ccc4S(C)(=O)=O)cc4nccnc34)cc21` [Example 116, 4-Methanesulfonyl-3-{[8-(1-methyl-1H-indol-6-yl)quinoxalin-6-yl]amino}benzamide], the IC50 lay within 1 to 1000 nM.

Regarding `CS(=O)(=O)c1ccncc1Nc1cc(-c2ccc3n[nH]nc3c2)c2nccnc2c1` [Example 118, 8-(1H-1,2,3-Benzotriazol-5-yl)-N-(4-methanesulfonylpyridin-3-yl)quinoxalin-6-amine], the IC50 was 1000 to 10000 nM.

Turning to `Cn1ccc2ccc(-c3cc(Nc4cc(C(=O)NN)ccc4S(C)(=O)=O)cc4nccnc34)cc21` [Example 119, 4-Methanesulfonyl-3-{[8-(1-methyl-1H-indol-6-yl)quinoxalin-6-yl]amino}benzohydrazide], the IC50 lay in the range of 1 to 1000 nM.

Consider `CN(c1cc(-c2ccc3ccn(C)c3c2)c2nccnc2c1)c1cnccc1C(=O)Nc1cncnc1` [Example 125, 3-{Methyl[8-(1-methyl-1H-indol-6-yl)quinoxalin-6-yl]amino}-N-(pyrimidin-5-yl)pyridine-4-carboxamide], for which the half-maximal inhibitory concentration (IC50) is 1000 to 10000 nM.

With `Cn1ccc2ccc(-c3cc(Nc4cnccc4C(=O)NC4CCCCC4)cc4nccnc34)cc21` [Example 126, N-Cyclohexyl-3-{[8-(1-methyl-1H-indol-6-yl)quinoxalin-6-yl]amino}pyridine-4-carboxamide], the concentration for half-maximal inhibition (IC50) lay in the range of 1000 to 10000 nM.

For the compound `Cc1ccc(C(N)=O)c(-c2cc(Nc3cnccc3S(C)(=O)=O)cc3nccnc23)c1` [Example 128, 2-{7-[(4-methanesulfonylpyridin-3-yl)amino]quinoxalin-5-yl}-4-methylbenzamide], the IC50 was in the range of 10000 to 100000 nM.

On to `CCOc1cccc(-c2cc(Nc3cnccc3S(C)(=O)=O)cc3nccnc23)c1` [Example 129, 8-(3-Ethoxyphenyl)-N-(4-methanesulfonylpyridin-3-yl)quinoxalin-6-amine], for which the IC50 was 10000 to 100000 nM.

Consider `CC(C)Oc1cccc(-c2cc(Nc3cnccc3S(C)(=O)=O)cc3nccnc23)c1` [Example 130, N-(4-Methanesulfonylpyridin-3-yl)-8-[3-(propan-2-yloxy)phenyl]quinoxalin-6-amine], for which the IC50 lay within 10000 to 100000 nM.

`CC(=O)N1CCOCC1CNC(=O)c1ccncc1Nc1cc(-c2ccc3ccn(C)c3c2)c2nccnc2c1` (stereo not drawn) [Example 136, N-[(4-acetylmorpholin-3-yl)methyl]-3-{[8-(1-methyl-1H-indol-6-yl)quinoxalin-6-yl]amino}pyridine-4-carboxamide]: the IC50 lay within 1 to 1000 nM.

In the case of `CN1CCOC(CNC(=O)c2ccncc2Nc2cc(-c3ccc4ccn(C)c4c3)c3nccnc3c2)C1` (stereo not drawn) [Example 137, 3-{[8-(1-methyl-1H-indol-6-yl)quinoxalin-6-yl]amino}-N-[(4-methylmorpholin-2-yl)methyl]pyridine-4-carboxamide], the IC50 was in the range of 1 to 1000 nM.

On to `Cn1cncc1CNC(=O)c1ccncc1Nc1cc(-c2ccc3ccn(C)c3c2)c2nccnc2c1` [Example 143, N-[(1-methyl-1H-imidazol-5-yl)methyl]-3-{[8-(1-methyl-1H-indol-6-yl)quinoxalin-6-yl]amino}pyridine-4-carboxamide], for which the IC50 fell in the range of 1 to 1000 nM.

Turning to `Cn1ccc2ccc(-c3cc(Nc4cnccc4C(=O)NCc4cccnn4)cc4nccnc34)cc21` [Example 144, 3-{[8-(1-Methyl-1H-indol-6-yl)quinoxalin-6-yl]amino}-N-[(pyridazin-3-yl)methyl]pyridine-4-carboxamide], the IC50 fell in the range of 1 to 1000 nM.

Take `Cn1ccc2ccc(-c3cc(Nc4ccncc4C#N)cc4nccnc34)cc21` [Example 145, 4-{[8-(1-Methyl-1H-indol-6-yl)quinoxalin-6-yl]amino}pyridine-3-carbonitrile]: the IC50 lay in the range of 1000 to 10000 nM.

For `N#Cc1cnccc1Nc1cc(Cl)c2nccnc2c1` [Example 146, 4-[(8-chloroquinoxalin-6-yl)amino]pyridine-3-carbonitrile], the IC50 fell in the range of 10000 to 100000 nM.

As for `Cn1ccc2ccc(-c3cc(Nc4cncnc4C(N)=O)cc4nccnc34)cc21` [Example 149, 5-{[8-(1-methyl-1H-indol-6-yl)quinoxalin-6-yl]amino}pyrimidine-4-carboxamide], the IC50 lay in the range of 1 to 1000 nM.

On to `Cc1csc2ccc(-c3cc(Nc4cnccc4C#N)cc4nccnc34)cc12` [Example 150, 3-{[8-(3-Methyl-1-benzothiophen-5-yl)quinoxalin-6-yl]amino}pyridine-4-carbonitrile], for which the IC50 is 1 to 1000 nM.

For the compound `COc1ccc(C)c(-c2cc(Nc3cnccc3S(C)(=O)=O)cc3nccnc23)c1` [Example 153, N-(4-Methanesulfonylpyridin-3-yl)-8-(5-methoxy-2-methylphenyl)quinoxalin-6-amine], the IC50 fell in the range of 1000 to 10000 nM.
